# Reference: PubChem BioAssay AID1845203 (Molecular Pharmacology Branch, DTP, NCI, 2023)
# Test system: G-401 tumor spheroids, viability % test/control
# Experiment: Anticancer human tumor G-401 cell line growth inhibition;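 further: spheroids exposed to compound for 7 days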;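 on viability, T/C: 100% = DMSO vehicle-treated spheroids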
# Settings: spheroids with HUVEC and MSC; for IC50: curve of first compound; for viability, T/C: stronger effect = lower value
# How it was run: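 Complex tumor spheroids combined malignant cells with endothelial cells and mesenchymal stem cells. DNA-damaging drugs and DNA repair inhibitors were tested alone and in combination, at half-log dilutions down from clinical Cmax (top 10 microM if Cmax unknown), 0.25% DMSO final.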
# [1] = second compound 30 pM, first compound 0.0316 µM
# [2] = second compound 30 pM, first compound 0.1 µM
# [3] = second compound 30 pM, first compound 0.316 µM
# [4] = second compound 30 pM, first compound 1 µM
# [5] = second compound 30 pM, first compound 3.16 µM
# [6] = second compound 30 pM, first compound 10 µM
# [7] = second compound 94.9 pM, first compound 0.0316 µM
# [8] = second compound 94.9 pM, first compound 0.1 µM
# [9] = second compound 94.9 pM, first compound 0.316 µM
# [10] = second compound 94.9 pM, first compound 1 µM
# [11] = second compound 94.9 pM, first compound 3.16 µM
# [12] = second compound 94.9 pM, first compound 10 µM
# [13] = second compound 0.0003 µM, first compound 0.0316 µM
# [14] = second compound 0.0003 µM, first compound 0.1 µM
# [15] = second compound 0.0003 µM, first compound 0.316 µM
# [16] = second compound 0.0003 µM, first compound 1 µM
# [17] = second compound 0.0003 µM, first compound 3.16 µM
# [18] = second compound 0.0003 µM, first compound 10 µM
# [19] = second compound 0.000949 µM, first compound 0.0316 µM
# [20] = second compound 0.000949 µM, first compound 0.1 µM
# [21] = second compound 0.000949 µM, first compound 0.316 µM
# [22] = second compound 0.000949 µM, first compound 1 µM
# [23] = second compound 0.000949 µM, first compound 3.16 µM
# [24] = second compound 0.000949 µM, first compound 10 µM
# [25] = second compound 0.003 µM, first compound 0.0316 µM
# [26] = second compound 0.003 µM, first compound 0.1 µM
# [27] = second compound 0.003 µM, first compound 0.316 µM
# [28] = second compound 0.003 µM, first compound 1 µM
# [29] = second compound 0.003 µM, first compound 3.16 µM
# [30] = second compound 0.003 µM, first compound 10 µM
SMILES,IC50 (second compound 30 pM) [nM],IC50 (second compound 94.9 pM) [nM],IC50 (second compound 0.0003 µM) [nM],IC50 (second compound 0.000949 µM) [nM],IC50 (second compound 0.003 µM) [nM],"viability, T/C [1] [%]","viability, T/C [2] [%]","viability, T/C [3] [%]","viability, T/C [4] [%]","viability, T/C [5] [%]","viability, T/C [6] [%]","viability, T/C [7] [%]","viability, T/C [8] [%]","viability, T/C [9] [%]","viability, T/C [10] [%]","viability, T/C [11] [%]","viability, T/C [12] [%]","viability, T/C [13] [%]","viability, T/C [14] [%]","viability, T/C [15] [%]",further results
CC(C)n1c(=O)n(C)c2cnc3cc(F)c(-c4ccc(OCCCN5CCCCC5)nc4)cc3c21 + COc1cc2c(cc1O)CCNC21CSC2c3c(OC(C)=O)c(C)c4c(c3C(COC1=O)N1C(O)C3Cc5cc(C)c(OC)c(O)c5C(C21)N3C)OCO4,< 31.6,< 31.6,< 31.6,< 31.6,< 31.6,43.6,35.7,35,46.2,36.9,19,19.1,17.3,18.1,21.6,23.9,23,15.6,12.8,16.4,"viability, T/C [16]: 19.7%; viability, T/C [17]: 18.4%; viability, T/C [18]: 17.9%; viability, T/C [19]: 7.44%; viability, T/C [20]: 7.47%; viability, T/C [21]: 7.71%; viability, T/C [22]: 11.5%; viability, T/C [23]: 12.2%; viability, T/C [24]: 10.6%; viability, T/C [25]: 0.13%; viability, T/C [26]: 0.16%; viability, T/C [27]: 0.15%; viability, T/C [28]: 0.36%; viability, T/C [29]: 0.4%; viability, T/C [30]: 0.44%"
CC1COCCN1c1cc(-c2ccnn2C)c2ccnc(-c3ccn[nH]3)c2n1 (stereo not given) + COc1cc2c(cc1O)CCNC21CSC2c3c(OC(C)=O)c(C)c4c(c3C(COC1=O)N1C(O)C3Cc5cc(C)c(OC)c(O)c5C(C21)N3C)OCO4,39.6,< 31.6,< 31.6,< 31.6,< 31.6,57.3,22.1,12.5,12.3,14.6,16.3,32,16.9,10.8,11.2,12.9,15.8,13.1,10.8,9.87,"viability, T/C [16]: 9.44%; viability, T/C [17]: 11%; viability, T/C [18]: 14%; viability, T/C [19]: 7.87%; viability, T/C [20]: 7.07%; viability, T/C [21]: 6.97%; viability, T/C [22]: 4.82%; viability, T/C [23]: 3.79%; viability, T/C [24]: 1.07%; viability, T/C [25]: 0.15%; viability, T/C [26]: 0.14%; viability, T/C [27]: 0.12%; viability, T/C [28]: 0.11%; viability, T/C [29]: 0.11%; viability, T/C [30]: 0.17%"
